From patent publication EP4663632A1, “COMPOUNDS USEFUL FOR THE MODULATION OF THE ACTIVITY OF STING” (Sulis Therapeutics ApS, priority 2024, dated 2025)

Experiments:
[1] = molecular target: STING (Homo sapiens, UniProt Q86WV6); assay: Western Blot analysis of inhibition of STING activation in HFF-1 cells; assay type: cell-based; design: host or cells: HFF-1 human foreskin fibroblasts; conditions: for STING, TBK1 and IRF1 phosphorylation: 2 h or 5 h; for phosphorylation of STING, IRF1 or TBK1 (agonism): compound as single agent, no activation
Protocol: To assess whether S1 STING ligands inhibit STING activation, primary human skin fibroblasts (Figure 5) or HFF-1 cells (Figure 6) were treated with various compounds which comprise only an S1 ligand domain and a Linker domain before undergoing Western Blot analysis as described below.
The cells were lysed and analysed on WB. […] The WB membrane was probed for p-STING, STING, p-IRF3, p-TBK1, and Vinculin.

[2] = molecular target: C-terminal domain (CTD) of human STING (Homo sapiens, UniProt Q86WV6); assay: STING binding FP assay III; design: recombinant human STING protein (155-379); conditions: 10 nM STING (FP assay III according to the text); read-out: STING binding FP assay II, IC50
Protocol: The interaction between molecules and the C-terminal domain (CTD) of human STING was evaluated using a competition binding assay. In this assay, recombinant human STING protein (155-379) and a STING binding fluorescent probe were employed. Upon binding of the probe to STING, the rotation of the fluorescent probe is slowed due to the larger molecular size of the protein-bound complex. As a result, emitted light retains its plane of polarization, leading to an increase in fluorescence polarization. Molecules competing for the probe binding site displace the probe, which leads to rapid randomization of the polarization plane of the emitted light and a subsequent decrease in measured fluorescence polarization signal. Change in polarization was measured, allowing a comparative evaluation of the binding affinities of different compounds to the target protein.
The assay was performed in 96-well plates (ThermoFisher, cat.# 237108) containing 100µl : 10 µL test compound in 10% DMSO and buffer A (150 mM NaCl, 50 mM HEPES pH 7.5, 1 mM DTT) + 90 µL prepared master mix solution of: 4 nM fluorescein-labelled STING ligand (Probe 1; synthesis described above) in buffer A + 0.055% Tween-20 (v/v) and 35 nM STING in buffer A. Post mixing, plates were agitated at 600rpm and incubated for 20 min at room temperature. Subsequent measurements of the fluorescence polarization signal were made on a BioTek Synergy-H1 plate reader, using a polarization filter; Exc: 485/20 nm, Em: […]) with a gain-setting of 75. IC50 values were determined using a standard non-linear regression four-parameter curve fit in Graphpad Prism.
The procedure for STING binding FP assay III is the same as described for STING binding FP assay I, except for a lower STING concentration. In STING binding FP assay III, a concentration of 10 nM STING in buffer A was used.

[3] = 5 µM for 15 min prior to 300 nM diABZI
[4] = 5 µM for 15 min prior to 8 µg/mL cGAMP

STING, sequence (Q86WV6 whole entry, the tested form may be a part): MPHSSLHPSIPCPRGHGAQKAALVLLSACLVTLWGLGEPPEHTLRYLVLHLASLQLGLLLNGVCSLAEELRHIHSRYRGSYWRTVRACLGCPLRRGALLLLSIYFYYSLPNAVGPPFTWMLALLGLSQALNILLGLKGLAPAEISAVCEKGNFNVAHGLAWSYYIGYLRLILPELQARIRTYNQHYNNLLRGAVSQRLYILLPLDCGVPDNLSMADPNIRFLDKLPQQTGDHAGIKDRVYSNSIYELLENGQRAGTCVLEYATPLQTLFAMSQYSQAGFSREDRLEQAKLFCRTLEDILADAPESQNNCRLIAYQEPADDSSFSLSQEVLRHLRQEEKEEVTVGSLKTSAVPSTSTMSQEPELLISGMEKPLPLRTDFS
C-terminal domain (CTD) of human STING, sequence (Q86WV6 155-379): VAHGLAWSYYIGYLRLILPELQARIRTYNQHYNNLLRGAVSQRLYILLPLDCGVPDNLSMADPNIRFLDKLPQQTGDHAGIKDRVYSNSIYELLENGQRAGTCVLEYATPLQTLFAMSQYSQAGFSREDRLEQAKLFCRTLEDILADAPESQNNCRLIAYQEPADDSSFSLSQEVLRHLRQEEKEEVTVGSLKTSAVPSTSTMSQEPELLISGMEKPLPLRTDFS

Molecule | STING, TBK1 and IRF1 phosphorylation [1, 3] | STING, TBK1 and IRF1 phosphorylation [1, 4] | phosphorylation of STING, IRF1 or TBK1 (agonism) [1] | IC50 [2]
CCn1nc(C)cc1C(=O)N=c1n(C)c2cc(C(N)=O)ccc2n1CCC(CCn1c(=NC(=O)c2cc(C)nn2CC)n(C)c2cc(C(N)=O)ccc21)OCC(=O)N1CCC[C@H]1C(=O)N1CCc2cc(OC)ccc2C1 (stereo partly drawn) [Example A26, 1-[3-(2-{(S)-2-[(6-Methoxy-1,2,3,4-tetrahydro-2-isoquinolyl)carbonyl]-1-pyrrolidinyl}-2-oxoethoxy)-5-{5-carbamoyl-2-[(1-ethyl-3-methyl-5-pyrazolyl)carbonylimino]-3-methyl-2,3-dihydro-1H-1,3-benzimidazol-1-yl}pentyl]-2-[(1-ethyl-3-methyl-5-pyrazolyl)carbonylimino]-3-methyl-2,3-dihydro-1H-1,3-benzimidazole-5-carboxamide] | lower compared to cells treated with diABZI c3 alone | lower compared to cells treated with cGAMP alone | no phosphorylation of STING, IRF1 or TBK1 was observed | –
CCn1nc(C)cc1C(=O)N=c1n(C)c2cc(C(N)=O)ccc2n1CCC(CCn1c(=NC(=O)c2cc(C)nn2CC)n(C)c2cc(C(N)=O)ccc21)OCC(=O)N1CCOC[C@@H]1c1ccccc1 (stereo partly drawn) [Example A30, 1-(3-{2-[(S)-3-Phenyl-4-morpholinyl]-2-oxoethoxy}-5-{5-carbamoyl-2-[(1-ethyl-3-methyl-5-pyrazolyl)carbonylimino]-3-methyl-2,3-dihydro-1H-1,3-benzimidazol-1-yl}pentyl)-2-[(1-ethyl-3-methyl-5-pyrazolyl)carbonylimino]-3-methyl-2,3-dihydro-1H-1,3-benzimidazole-5-carboxamide] | lower compared to cells treated with diABZI c3 alone | lower compared to cells treated with cGAMP alone | no phosphorylation of STING, IRF1 or TBK1 was observed | –
N-(2-{1-[4-(N-2,6-Dioxo-3-piperidylcarbamoyl)-3-chlorophenyl]-4-piperidyl}ethyl)15-{[(3-{5-carbamoyl-2-[(1-ethyl-3-methyl-5-pyrazolyl)carbonylimino]-3-methyl-2,3-dihydro-1H-1 ,3-benzimidazol-1-yl}-1-(2-{5-carbamoyl-2-[(1-ethyl-3-methyl-5-pyrazolyl)carbonylimino]-3-methyl-2,3-dihydro-1H-1 ,3-benzimidazol-1-yl}ethyl)propoxy)methyl]carbonylamino}-4,7,10,13-tetraoxapentadecanamide [Example 37] | – | – | – | 3.7 nM
CCn1nc(C)cc1C(=O)N=c1n(C)c2cc(C(N)=O)ccc2n1CCC(CCn1c(=NC(=O)c2cc(C)nn2CC)n(C)c2cc(C(N)=O)ccc21)OCC(=O)NCCOCCOCCOCCOCCC(=O)N1CCN(C2CCN(c3ccc(C(=O)NC4CCC(=O)NC4=O)c(OC)c3)CC2)CC1 (centres unmarked) [Example 36, N-[15-(4-{1-[4-(N-2,6-Dioxo-3-piperidylcarbamoyl)-3-methoxyphenyl]-4-piperidyl}-1-piperazinyl)-15-oxo-3,6,9,12-tetraoxapentadecyl](3-{5-carbamoyl-2-[(1-ethyl-3-methyl-5-pyrazolyl)carbonylimino]-3-methyl-2,3-dihydro-1H-1 ,3-benzimidazol-1-yl}-1-(2-{5-carbamoyl-2-[(1-ethyl-3-methyl-5-pyrazolyl)carbonylimino]-3-methyl-2,3-dihydro-1 H-1 ,3-benzimidazol-1-yl}ethyl)propoxy)acetamide] | – | – | – | 10 nM
CCn1nc(C)cc1C(=O)N=c1n(C)c2cc(C(N)=O)ccc2n1CCC(CCn1c(=NC(=O)c2cc(C)nn2CC)n(C)c2cc(C(N)=O)ccc21)OCC(=O)NCCOCCOCCOCCOCCC(=O)NCCC1CCN(c2ccc(C(=O)NC3CCC(=O)NC3=O)c(OC)c2)CC1 (centres unmarked) [Example 35, N-(2-{1-[4-(N-2,6-Dioxo-3-piperidylcarbamoyl)-3-methoxyphenyl]-4-piperidyl}ethyl)15-{[(3-{5-carbamoyl-2-[(1-ethyl-3-methyl-5-pyrazolyl)carbonylimino]-3-methyl-2,3-dihydro-1H-1 ,3-benzimidazol-1-yl}-1-(2-{5-carbamoyl-2-[(1-ethyl-3-methyl-5-pyrazolyl)carbonylimino]-3-methyl-2,3-dihydro-1H-1 ,3-benzimidazol-1-yl}ethyl)propoxy)methyl]carbonylamino}-4,7,10,13-tetraoxapentadecanamide] | – | – | – | 10.3 nM
CCn1nc(C)cc1C(=O)N=c1n(C)c2cc(C(N)=O)ccc2n1CCC(CCn1c(=NC(=O)c2cc(C)nn2CC)n(C)c2cc(C(N)=O)ccc21)OCC(=O)NCCOCCOCCOCCOCCOCC(=O)N[C@H]1C[C@@H](C(=O)N[C@@H]2CCCc3ccccc32)N(C(=O)[C@@H](NC(=O)[C@H](C)NC)C2CCCCC2)C1 (some centres unmarked) [Example 13] | – | – | – | 4.1 nM
CCn1nc(C)cc1C(=O)N=c1n(C)c2cc(C(N)=O)ccc2n1CCC(CCn1c(=NC(=O)c2cc(C)nn2CC)n(C)c2cc(C(N)=O)ccc21)OCC(=O)NCCOCCOCCOCCOCCC(=O)NCCC1CCN(c2ccc(C(=O)NC3CCC(=O)NC3=O)c(F)c2)CC1 (centres unmarked) [Example 38, N-(2-{1-[4-(N-2,6-Dioxo-3-piperidylcarbamoyl)-3-fluorophenyl]-4-piperidyl}ethyl)15-{[(3-{5-carbamoyl-2-[(1-ethyl-3-methyl-5-pyrazolyl)carbonylimino]-3-methyl-2,3-dihydro-1 H-1 ,3-benzimidazol-1-yl}-1-(2-{5-carbamoyl-2-[(1-ethyl-3-methyl-5-pyrazolyl)carbonylimino]-3-methyl-2,3-dihydro-1 H-1 ,3-benzimidazol-1-yl}ethyl)propoxy)methyl]carbonylamino}-4,7,10,13-tetraoxapentadecanamide] | – | – | – | 2.6 nM
CCn1nc(C)cc1C(=O)N=c1n(C)c2cc(C(N)=O)ccc2n1CCC(CCn1c(=NC(=O)c2cc(C)nn2CC)n(C)c2cc(C(N)=O)ccc21)OCC(=O)NCCOCCOCCOCCOCCC(=O)NCCOCCOCCOCC(=O)N[C@H]1C[C@@H](C(=O)N[C@@H]2CCCc3ccccc32)N(C(=O)[C@@H](NC(=O)[C@H](C)NC)C2CCCCC2)C1 (some centres unmarked) [Example 18] | – | – | – | 3.5 nM
CCn1nc(C)cc1C(=O)Nc1nc2cc(C(N)=O)ccc2n1CCC(CCn1c(NC(=O)c2cc(C)nn2CC)nc2cc(C(N)=O)ccc21)OCC(=O)NCCOCCOCCOCC(=O)N[C@H](C(=O)N1C[C@H](O)C[C@H]1C(=O)NCc1ccc(-c2scnc2C)cc1)C(C)(C)C [Example 4, N-[(S)-1-{[(2S,4R)-4-Hydroxy-2-({[p-(4-methyl-1,3-thiazol-5-yl)phenyl]methyl}carbamoyl)-1-pyrrolidinyl]carbonyl}-2,2-dimethylpropyl]11-[({3-[5-carbamoyl-2-(1-ethyl-3-methyl-5-pyrazolylcarbonylamino)-1H-1,3-benzimidazol-1-yl]-1-{2-[5-carbamoyl-2-(1-ethyl-3-methyl-5-pyrazolylcarbonylamino)-1H-1,3-benzimidazol-1-yl]ethyl}propoxy}methyl)carbonylamino]-3,6,9-trioxaundecanamide] | – | – | – | 2.2 nM
CCn1nc(C)cc1C(=O)N=c1n(C)c2cc(C(N)=O)ccc2n1CCC(CCn1c(=NC(=O)c2cc(C)nn2CC)n(C)c2cc(C(N)=O)ccc21)OCC(=O)NCCOCCOCCOCCOCCC(=O)NCCOCCNc1ccc(C(=O)NC2CCC(=O)NC2=O)c(OC)c1 (centres unmarked) [Example 34, N-(2-{2-[4-(N-2,6-Dioxo-3-piperidylcarbamoyl)-3-anisidino]ethoxy}ethyl)15-{[(3-{5-carbamoyl-2-[(1-ethyl-3-methyl-5-pyrazolyl)carbonylimino]-3-methyl-2,3-dihydro-1H-1 ,3-benzimidazol-1-yl}-1-(2-{5-carbamoyl-2-[(1-ethyl-3-methyl-5-pyrazolyl)carbonylimino]-3-methyl-2,3-dihydro-1H-1 ,3-benzimidazol-1-yl}ethyl)propoxy)methyl]carbonylamino}-4,7,10,13-tetraoxapentadecanamide] | – | – | – | 3.7 nM
